In brackets after ≈: the same amount, converted by molar mass. Read-outs that look alike come from different tables or passages of the source.
Legend:
S. aureus ATCC 25923 [1] = test: Antibacterial activity, pre-exposure (planktonic cells and biofilm formation); format: cell-based, Staphylococcus aureus; details: for MIC / inhibition at 5 µM / inhibition at 10 µM / inhibition at 15 µM / inhibition at 25 µM: Staphylococcus aureus, ATCC25923; for inhibition at 5 µM / inhibition at 10 µM / inhibition at 15 µM / inhibition at 25 µM / Average inhibition %, biofilms viability / Average inhibition %, planktonic cells viability: pre-exposure, ± SD
Description: (§1) The antimicrobial activity was assessed in a similar way for the initial screening and the dose–response evaluation against different bacterial strains. With the exception of the post-exposure experiment, the compounds were added to the wells along with the bacteria to test the ability of compounds to prevent bacterial growth and biofilm formation (pre-exposure). The compounds were diluted in DMSO and plated directly in 96-well plates before adding the bacterial culture, and plates were incubated for 18 h under aerobic conditions at 37 °C with shaking (220 rpm). The antibacterial activity of the compounds was assessed on planktonic cells and biofilms separately using two different measurements for each: optical density (turbidity) and resazurin reduction (viability) on planktonic cells and resazurin followed by a crystal violet staining assay (total biomass) on biofilms, as described in the following sections.
(§2) The resazurin staining was performed according to the protocol previously optimized with a few modifications.[46] Briefly, the planktonic solution was first transferred into a new 96-well plate and the OD of the planktonic solution was measured using a Varioskan LUX Multimode microplate reader (Thermo Scientific, Vantaa, Finland). Then, 10 μL of a 400 μM resazurin (R7017, Sigma-Aldrich, St. Louis, MO) diluted in phosphate-buffered saline (PBS) (Thermo Fisher Scientific, MA) was added to the wells (for a final resazurin concentration of 20 μM). The plate was incubated in the dark with shaking (220 rpm) for about 3–10 min at room temperature with S. aureus and A. baumannii (until the bacteria controls turned pink) or for 20 min at 37 °C with P. aeruginosa. Fluorescence was measured at λex = 560 nm and λem = 590 nm using the top optics of the Varioskan LUX Multimode microplate reader. The planktonic plate was then discarded. The original challenge plate containing the biofilms was washed once with PBS, and 200 μL of a 20 μM resazurin solution was added to the wells. The plate was incubated in the dark at 37 °C with shaking (220 rpm) for 30 min with S. aureus, 60 min with A. baumannii, and 90 min with P. aeruginosa. Fluorescence was measured as described for the planktonic solution. The biofilms were next treated with crystal violet staining.
(§3) After removing the resazurin solution from the plate, biofilms were fixed with ethanol 100% for 15 min at room temperature. Ethanol was then removed, and the biofilms were left to air-dry completely at RT. Crystal violet, diluted to 1:100 in deionized water from the 2.3% commercial solution (HT90132, Sigma-Aldrich, St. Louis, MO), was added to the wells and, after a 5 min incubation with the dye, the biofilms were washed twice with deionized water and left to air-dry for about 10 min. The dye was solubilized in ethanol 100% for 1 h, and absorbance was measured at 595 nm using a Multiskan Sky microplate spectrophotometer (Thermo Scientific, Vantaa, Finland).

A. baumannii NCTC 13423 = test: Antibacterial activity, pre-exposure; format: cell-based, Acinetobacter baumannii; details: for Average inhibition %, biofilms viability / Average inhibition %, planktonic cells viability / inhibition at 10 µM / inhibition at 15 µM / inhibition at 25 µM / inhibition at 50 µM: A. baumannii NCTC 13423, pre-exposure, ± SD; for inhibition at 10 µM / inhibition at 15 µM / inhibition at 25 µM / inhibition at 50 µM / MIC: Acinetobacter baumannii, NCTC13423
Description: as §1, §2, §3

S. aureus ATCC 25923 [2] = test: Antibacterial activity, post-exposure on preformed 18-h-old biofilms; format: cell-based, Staphylococcus aureus; details: for Average inhibition %, biofilms viability / Average inhibition %, planktonic cells viability / inhibition at 25 µM / inhibition at 50 µM / inhibition at 100 µM / inhibition at 200 µM: ± SD; for inhibition at 25 µM / inhibition at 50 µM / inhibition at 100 µM / inhibition at 200 µM: Staphylococcus aureus; for inhibition at 25 µM: ATCC25923, 25 µM; for inhibition at 50 µM: ATCC25923, 50 µM; for inhibition at 100 µM: ATCC25923, 100 µM; for inhibition at 200 µM: ATCC25923, 200 µM
Description: For the post-exposure experiment, bacteria were grown with no compounds in the same conditions for 18 h, after which the media was changed, and compounds were added on the preformed biofilms. The plates were then incubated in the same conditions for an additional 24 h before proceeding to the staining assays.
as §2, §3

P. aeruginosa ATCC 9027 = test: Antibacterial activity, pre-exposure; format: cell-based, Pseudomonas aeruginosa; details: for Average inhibition %, biofilms viability / Average inhibition %, planktonic cells viability / inhibition at 50 µM / inhibition at 100 µM / inhibition at 150 µM / inhibition at 200 µM: P. aeruginosa ATCC 9027, pre-exposure, ± SD; for MIC / inhibition at 50 µM / inhibition at 100 µM / inhibition at 150 µM / inhibition at 200 µM: Pseudomonas aeruginosa; for inhibition at 50 µM / inhibition at 100 µM / inhibition at 150 µM / inhibition at 200 µM: ATCC9027
Description: as §1, §2, §3

[3] = 10 µM, read-out: Average inhibition %, biofilms biomass
[4] = 10 µM, read-out: Average inhibition %, planktonic cells turbidity
[5] = 15 µM, read-out: Average inhibition %, biofilms biomass
[6] = 15 µM, read-out: Average inhibition %, planktonic cells turbidity
[7] = 25 µM, read-out: Average inhibition %, biofilms biomass
[8] = 25 µM, read-out: Average inhibition %, planktonic cells turbidity
[9] = 50 µM, read-out: Average inhibition %, biofilms biomass
[10] = 50 µM, read-out: Average inhibition %, planktonic cells turbidity
[11] = read-out: Average inhibition %, biofilms biomass
[12] = read-out: Average inhibition %, planktonic cells turbidity

## CCCCCCCCc1ccc2ccc(CC(N)(CO)CO)nc2c1 [Compound 82, 2-Amino-2-[(7-octylquinolin-2-yl)methyl]propane-1,3-diol]
S. aureus ATCC 25923 [1]; lowest concentration with no visible growth (>90% inhibition of turbidity and viability of planktonic cells), 18 h, read-out: MIC S. aureus ATCC 25923
  MIC: 15 µM (≈ 5.17 µg/mL)
S. aureus ATCC 25923 [1]; 5 µM, read-out: Average inhibition %, biofilms biomass
  inhibition at 5 µM: 41.7 ± 5.1%
S. aureus ATCC 25923 [1]; 5 µM, read-out: Average inhibition %, planktonic cells turbidity
  inhibition at 5 µM: 32.8 ± 33.4%
S. aureus ATCC 25923 [1]; [3]
  inhibition at 10 µM: 67.2 ± 23.4%
S. aureus ATCC 25923 [1]; [4]
  inhibition at 10 µM: 61.5 ± 33.3%
S. aureus ATCC 25923 [1]; [5]
  inhibition at 15 µM: 94.4 ± 4.6%
S. aureus ATCC 25923 [1]; [6]
  inhibition at 15 µM: 99.9 ± 0.1%
S. aureus ATCC 25923 [1]; [7]
  inhibition at 25 µM: 93 ± 5.8%
S. aureus ATCC 25923 [1]; [8]
  inhibition at 25 µM: 99.9 ± 0.1%
S. aureus ATCC 25923 [1]; read-out: MIC (S. aureus)
  MIC: 15 µM (≈ 5.17 µg/mL)
S. aureus ATCC 25923 [1]; lowest concentration with no visible growth (>90% inhibition of turbidity and viability of planktonic cells), 18 h
  MIC S. aureus ATCC 25923: same MIC as fingolimod
S. aureus ATCC 25923 [1]; 5 µM
  Average inhibition %, biofilms viability: 34.4 ± 13.6%
  Average inhibition %, planktonic cells viability: 6.1 ± 10.6%
S. aureus ATCC 25923 [1]; 10 µM
  Average inhibition %, biofilms viability: 63.5 ± 30.9%
  Average inhibition %, planktonic cells viability: 33 ± 57.1%
S. aureus ATCC 25923 [1]; 15 µM
  Average inhibition %, biofilms viability: 99.7 ± 0.3%
  Average inhibition %, planktonic cells viability: 99.6 ± 0%
S. aureus ATCC 25923 [1]; 25 µM
  Average inhibition %, biofilms viability: 99.7 ± 0.4%
  Average inhibition %, planktonic cells viability: 99.7 ± 0%
A. baumannii NCTC 13423; 10 µM
  Average inhibition %, biofilms viability: 3.9 ± 5.3%
  Average inhibition %, planktonic cells viability: 10.4 ± 9%
A. baumannii NCTC 13423; 15 µM
  Average inhibition %, biofilms viability: 96.5 ± 6%
  Average inhibition %, planktonic cells viability: 99.5 ± 0.5%
A. baumannii NCTC 13423; 25 µM
  Average inhibition %, biofilms viability: 100.7 ± 1.1%
  Average inhibition %, planktonic cells viability: 99.7 ± 0%
A. baumannii NCTC 13423; 50 µM
  Average inhibition %, biofilms viability: 99 ± 1.3%
  Average inhibition %, planktonic cells viability: 99.6 ± 0%
A. baumannii NCTC 13423; [3]
  inhibition at 10 µM: 13.3 ± 12.9%
A. baumannii NCTC 13423; [4]
  inhibition at 10 µM: 1 ± 1.4%
A. baumannii NCTC 13423; [5]
  inhibition at 15 µM: 74.7 ± 11.1%
A. baumannii NCTC 13423; [6]
  inhibition at 15 µM: 98.3 ± 2.5%
A. baumannii NCTC 13423; [7]
  inhibition at 25 µM: 88.6 ± 7.8%
A. baumannii NCTC 13423; [8]
  inhibition at 25 µM: 99.8%
A. baumannii NCTC 13423; [9]
  inhibition at 50 µM: 82.6 ± 12.7%
A. baumannii NCTC 13423; [10]
  inhibition at 50 µM: 99.4 ± 0.1%
A. baumannii NCTC 13423; pre-exposure, Inactive = no activity up to 50 μM, > = some inhibition but no MIC reached, read-out: MIC A. baumannii NCTC 13423
  MIC: 15 µM (≈ 5.17 µg/mL)
A. baumannii NCTC 13423; supplementary molecular formula strings sheet, read-out: MIC (A. baumannii)
  MIC: 15 µM (≈ 5.17 µg/mL)
S. aureus ATCC 25923 [2]; 25 µM
  Average inhibition %, biofilms viability: 11.8 ± 8.4%
  Average inhibition %, planktonic cells viability: 0 ± 0%
S. aureus ATCC 25923 [2]; 50 µM
  Average inhibition %, biofilms viability: 27.8 ± 14.6%
  Average inhibition %, planktonic cells viability: 17.9 ± 25.5%
S. aureus ATCC 25923 [2]; 100 μM
  Inhibition of viability and total biomass of preformed biofilms: at least 70%
S. aureus ATCC 25923 [2]; 100 µM
  Average inhibition %, biofilms viability: 81.5 ± 32.8%
  Average inhibition %, planktonic cells viability: 94.5 ± 10%
S. aureus ATCC 25923 [2]; 200 µM
  Average inhibition %, biofilms viability: 100.2 ± 0.2%
  Average inhibition %, planktonic cells viability: 100.5 ± 0.5%
S. aureus ATCC 25923 [2]; [11]
  inhibition at 25 µM: 45.6 ± 7.5%
  inhibition at 50 µM: 51.6 ± 10.3%
  inhibition at 100 µM: 79.6 ± 17%
  inhibition at 200 µM: 79.8 ± 5.7%
S. aureus ATCC 25923 [2]; [12]
  inhibition at 25 µM: 14.1 ± 11.7%
  inhibition at 50 µM: 34.6 ± 28.4%
  inhibition at 100 µM: 79.1 ± 11.5%
  inhibition at 200 µM: 77.9 ± 10%
P. aeruginosa ATCC 9027; 50 µM
  Average inhibition %, biofilms viability: 6.4 ± 5.7%
  Average inhibition %, planktonic cells viability: 53.2 ± 3.8%
P. aeruginosa ATCC 9027; 100 µM
  Average inhibition %, biofilms viability: 8.3 ± 8.6%
  Average inhibition %, planktonic cells viability: 48.1 ± 18.4%
P. aeruginosa ATCC 9027; 150 µM
  Average inhibition %, biofilms viability: 3.5 ± 6%
  Average inhibition %, planktonic cells viability: 57.4 ± 19%
P. aeruginosa ATCC 9027; 200 µM
  Average inhibition %, biofilms viability: 31.5 ± 49.1%
  Average inhibition %, planktonic cells viability: 51.6 ± 41.5%
P. aeruginosa ATCC 9027; ATCC9027, pre-exposure, Inactive = no activity up to 200 μM, > = some inhibition but no MIC reached, read-out: MIC P. aeruginosa ATCC 9027
  MIC: > 200 µM
P. aeruginosa ATCC 9027; ATCC9027, supplementary molecular formula strings sheet, read-out: MIC (P. aeruginosa)
  MIC: > 200 µM
P. aeruginosa ATCC 9027; [9]
  inhibition at 50 µM: 7.6 ± 7%
P. aeruginosa ATCC 9027; [10]
  inhibition at 50 µM: 46.8 ± 2.3%
P. aeruginosa ATCC 9027; 100 µM, read-out: Average inhibition %, biofilms biomass
  inhibition at 100 µM: 1.8 ± 2.7%
P. aeruginosa ATCC 9027; 100 µM, read-out: Average inhibition %, planktonic cells turbidity
  inhibition at 100 µM: 51.6 ± 8.5%
P. aeruginosa ATCC 9027; 150 µM, read-out: Average inhibition %, biofilms biomass
  inhibition at 150 µM: 2.7 ± 4.8%
P. aeruginosa ATCC 9027; 150 µM, read-out: Average inhibition %, planktonic cells turbidity
  inhibition at 150 µM: 61.3 ± 19.9%
P. aeruginosa ATCC 9027; 200 µM, read-out: Average inhibition %, biofilms biomass
  inhibition at 200 µM: 27.5 ± 24.4%
P. aeruginosa ATCC 9027; 200 µM, read-out: Average inhibition %, planktonic cells turbidity
  inhibition at 200 µM: 75.7 ± 14.1%

— publication PMC8296573, “Synthesis and Biological Evaluation of Fingolimod Derivatives as Antibacterial Agents” (ACS Omega, 2021)
